The results in this text go back to publication PMC5218480 (PLoS ONE, 2017).

This test has as its system MV-4-11 cells. As to the kind of experiment: Gene expression microarray analysis (Affymetrix PrimeView) and GSEA. The class given is cell-based, human. The arrangement: RFU PODN (11730768_x_at) / Fold change /veh PODN (11730768_x_at) / RFU LINC00158 (11744669_a_at) / Fold change /veh LINC00158 (11744669_a_at) / RFU DUSP10 (11751237_a_at) / Fold change /veh DUSP10 (11751237_a_at) / RFU ID3 (11757404_x_at) / Fold change /veh ID3 (11757404_x_at) / RFU PLEKHG5 (11737974_s_at) / Fold change /veh PLEKHG5 (11737974_s_at) / RFU LRRC4B (11730491_at) / Fold change /veh LRRC4B (11730491_at) / RFU GIMAP4 (11747438_a_at) / Fold change /veh GIMAP4 (11747438_a_at) / RFU KRT8 (11758183_x_at) / Fold change /veh KRT8 (11758183_x_at) / RFU CNN1 (11734310_a_at) / Fold change /veh CNN1 (11734310_a_at) / RFU VPS37D (11726825_at) / Fold change /veh VPS37D (11726825_at) / RFU C10orf10 (11716522_x_at) / Fold change /veh C10orf10 (11716522_x_at) / RFU KIR2DL2 /// KIR2DL4 /// KIR2DL5A /// KIR2DL5B /// KIR2DS1 /// KIR2DS2 /// KIR2DS3 /// KIR2DS4 /// KIR3DL3 /// KIR3DL3 /// KIR3DS1 (11738374_at) / Fold change /veh KIR2DL2 /// KIR2DL4 /// KIR2DL5A /// KIR2DL5B /// KIR2DS1 /// KIR2DS2 /// KIR2DS3 /// KIR2DS4 /// KIR3DL3 /// KIR3DL3 /// KIR3DS1 (11738374_at) / RFU C1QL1 (11718748_at) / Fold change /veh C1QL1 (11718748_at) / RFU TMPRSS4 (11747572_a_at) / Fold change /veh TMPRSS4 (11747572_a_at) / RFU HAMP (11756126_x_at) / Fold change /veh HAMP (11756126_x_at) / RFU RNFT2 (11725882_a_at) / Fold change /veh RNFT2 (11725882_a_at) / RFU NR4A2 (11747474_a_at) / Fold change /veh NR4A2 (11747474_a_at) / RFU ABCC12 (11746883_a_at) / Fold change /veh ABCC12 (11746883_a_at) / RFU TMEM136 (11760407_x_at) / Fold change /veh TMEM136 (11760407_x_at) / RFU CLDN22 /// WWC2 (11732394_at) / Fold change /veh CLDN22 /// WWC2 (11732394_at) / RFU HLA-DPB1 (11760878_x_at) / Fold change /veh HLA-DPB1 (11760878_x_at) / RFU SPINT1 (11716480_a_at) / Fold change /veh SPINT1 (11716480_a_at) / RFU GAP43 (11754022_s_at) / Fold change /veh GAP43 (11754022_s_at) / RFU A4GNT (11735810_at) / Fold change /veh A4GNT (11735810_at) / RFU PRB3 (11715151_x_at) / Fold change /veh PRB3 (11715151_x_at) / RFU TUBB4B (11761932_at) / Fold change /veh TUBB4B (11761932_at) / RFU CAPN14 (11732068_a_at) / Fold change /veh CAPN14 (11732068_a_at) / RFU TMCC2 (11721928_a_at) / Fold change /veh TMCC2 (11721928_a_at) / RFU IRGQ (11745062_a_at) / Fold change /veh IRGQ (11745062_a_at) / RFU FAM174B (11720279_a_at) / Fold change /veh FAM174B (11720279_a_at) / RFU TMPRSS4 (11748680_a_at) / Fold change /veh TMPRSS4 (11748680_a_at) / RFU FAM212B (11763350_a_at) / Fold change /veh FAM212B (11763350_a_at) / RFU PLEKHG5 (11743358_a_at) / Fold change /veh PLEKHG5 (11743358_a_at) / RFU ZSCAN30 (11745921_a_at) / Fold change /veh ZSCAN30 (11745921_a_at) / RFU CMKLR1 (11741424_a_at) / Fold change /veh CMKLR1 (11741424_a_at) / RFU LOC101060620 /// MAPK8IP1 (11723275_at) / Fold change /veh LOC101060620 /// MAPK8IP1 (11723275_at) / RFU SPTSSB (11747773_x_at) / Fold change /veh SPTSSB (11747773_x_at) / RFU PRSS12 (11739890_at) / Fold change /veh PRSS12 (11739890_at) / RFU BIN1 (11741810_x_at) / Fold change /veh BIN1 (11741810_x_at) / RFU WNT11 (11732464_a_at) / Fold change /veh WNT11 (11732464_a_at) / RFU C10orf10 (11716521_a_at) / Fold change /veh C10orf10 (11716521_a_at) / RFU C5orf56 (11738089_at) / Fold change /veh C5orf56 (11738089_at) / RFU CYB561 (11721691_x_at) / Fold change /veh CYB561 (11721691_x_at) / RFU ANKRD19P (11752326_a_at) / Fold change /veh ANKRD19P (11752326_a_at) / RFU OR2T12 /// OR2T33 /// OR2T8 (11738714_s_at) / Fold change /veh OR2T12 /// OR2T33 /// OR2T8 (11738714_s_at) / RFU VCAN (11748164_a_at) / Fold change /veh VCAN (11748164_a_at) / RFU JSRP1 (11732532_at) / Fold change /veh JSRP1 (11732532_at) / RFU KRTAP10-11 (11738290_x_at) / Fold change /veh KRTAP10-11 (11738290_x_at) / RFU MYO3A (11730013_a_at) / Fold change /veh MYO3A (11730013_a_at) / RFU EBF3 (11725865_a_at) / Fold change /veh EBF3 (11725865_a_at) / RFU CAMK2N1 (11719241_x_at) / Fold change /veh CAMK2N1 (11719241_x_at) / RFU C5orf56 (11738088_a_at) / Fold change /veh C5orf56 (11738088_a_at) / RFU OLFML3 (11715873_a_at) / Fold change /veh OLFML3 (11715873_a_at) / RFU LOC100653217 /// NTM (11731650_a_at) / Fold change /veh LOC100653217 /// NTM (11731650_a_at) / RFU MAPK11 (11762145_a_at) / Fold change /veh MAPK11 (11762145_a_at) / RFU FIZ1 (11724087_x_at) / Fold change /veh FIZ1 (11724087_x_at) / RFU OASL (11726364_x_at) / Fold change /veh OASL (11726364_x_at) / RFU SOX15 (11748057_x_at) / Fold change /veh SOX15 (11748057_x_at) / RFU CD79A (11719716_a_at) / Fold change /veh CD79A (11719716_a_at) / RFU HIST1H1D (11736915_at) / Fold change /veh HIST1H1D (11736915_at) / RFU CASKIN2 (11723855_a_at) / Fold change /veh CASKIN2 (11723855_a_at) / RFU LOC730098 (11760151_x_at) / Fold change /veh LOC730098 (11760151_x_at) / RFU OR4N2 (11742367_at) / Fold change /veh OR4N2 (11742367_at) / RFU PRRT2 (11749266_a_at) / Fold change /veh PRRT2 (11749266_a_at) / RFU SNX32 (11753110_a_at) / Fold change /veh SNX32 (11753110_a_at) / RFU CDHR5 (11726645_a_at) / Fold change /veh CDHR5 (11726645_a_at) / RFU RCAN1 (11760418_a_at) / Fold change /veh RCAN1 (11760418_a_at) / RFU FAM167A (11723789_a_at) / Fold change /veh FAM167A (11723789_a_at) / RFU FAM26E (11764081_at) / Fold change /veh FAM26E (11764081_at) / RFU ISYNA1 (11749810_s_at) / Fold change /veh ISYNA1 (11749810_s_at) / RFU ACY1 (11761880_at) / Fold change /veh ACY1 (11761880_at) / RFU 11764098_at / Fold change /veh 11764098_at / RFU SAMD14 (11745864_x_at) / Fold change /veh SAMD14 (11745864_x_at) / RFU NPB (11741838_a_at) / Fold change /veh NPB (11741838_a_at) / RFU TMPRSS6 (11731388_a_at) / Fold change /veh TMPRSS6 (11731388_a_at) / RFU KRTAP10-2 (11738614_at) / Fold change /veh KRTAP10-2 (11738614_at) / RFU ARHGAP8 /// PRR5-ARHGAP8 (11727945_x_at) / Fold change /veh ARHGAP8 /// PRR5-ARHGAP8 (11727945_x_at) / RFU KRTAP5-7 /// NADSYN1 (11734609_at) / Fold change /veh KRTAP5-7 /// NADSYN1 (11734609_at) / RFU RASL12 (11751679_a_at) / Fold change /veh RASL12 (11751679_a_at) / RFU CDKN2B (11736163_a_at) / Fold change /veh CDKN2B (11736163_a_at) / RFU PRF1 (11729649_at) / Fold change /veh PRF1 (11729649_at) / RFU, ZNF638 /// ZNF638-IT1 / Fold change vs veh, ZNF638 /// ZNF638-IT1 / RFU, PANK3 / Fold change vs veh, PANK3 / RFU, SH3YL1 / Fold change vs veh, SH3YL1 / RFU, ZEB2 / Fold change vs veh, ZEB2 / RFU, NRIP1 / Fold change vs veh, NRIP1 / RFU, PTTG1IP / Fold change vs veh, PTTG1IP / RFU, CAPN2 / Fold change vs veh, CAPN2 / RFU, MED14 / Fold change vs veh, MED14 / RFU, SNORA58 / Fold change vs veh, SNORA58 / RFU, C1orf63 / Fold change vs veh, C1orf63 / RFU, LRRFIP1 / Fold change vs veh, LRRFIP1 / RFU, NDUFAF7 / Fold change vs veh, NDUFAF7 / RFU, SLC12A2 / Fold change vs veh, SLC12A2 / RFU, IBTK / Fold change vs veh, IBTK / RFU, ESF1 / Fold change vs veh, ESF1 / Fold change vs veh, TMEM50B / RFU, TAOK1 / Fold change vs veh, TAOK1 / RFU, ACBD3 / Fold change vs veh, ACBD3 / RFU, TMA16 / Fold change vs veh, TMA16 / RFU, RWDD3 / Fold change vs veh, RWDD3 / RFU, BCAT1 / Fold change vs veh, BCAT1 / RFU, EDEM3 / Fold change vs veh, EDEM3 / RFU, TMEM33 / Fold change vs veh, TMEM33 / RFU, WDR75 / Fold change vs veh, WDR75 / RFU, AHCTF1 / Fold change vs veh, AHCTF1 / RFU, TFRC / Fold change vs veh, TFRC / RFU, ZDHHC17 / Fold change vs veh, ZDHHC17 / RFU, NOM1 / Fold change vs veh, NOM1 / RFU, ARL8B / Fold change vs veh, ARL8B / RFU, ZBTB11 / Fold change vs veh, ZBTB11 / RFU, TAMM41 / Fold change vs veh, TAMM41 / RFU, KIAA1704 /// LOC100996395 / Fold change vs veh, KIAA1704 /// LOC100996395 / RFU, ING1 / Fold change vs veh, ING1 / RFU, TRMT61B / Fold change vs veh, TRMT61B / RFU, FUBP3 / Fold change vs veh, FUBP3 / RFU, TP53 / Fold change vs veh, TP53 / RFU, TNKS2 / Fold change vs veh, TNKS2 / RFU, ZFP14 / Fold change vs veh, ZFP14 / RFU, ACTR2 / Fold change vs veh, ACTR2 / RFU, PPP3R1 / Fold change vs veh, PPP3R1 / RFU, PIK3R1 / Fold change vs veh, PIK3R1 / RFU, HNRNPA1 / Fold change vs veh, HNRNPA1 / RFU, RNF170 / Fold change vs veh, RNF170 / RFU, ZNF28 / Fold change vs veh, ZNF28 / RFU, RNGTT / Fold change vs veh, RNGTT / RFU, OGT / Fold change vs veh, OGT / RFU, BRD1 / Fold change vs veh, BRD1 / RFU, MARS / Fold change vs veh, MARS / RFU, ZNF655 / Fold change vs veh, ZNF655 / RFU, FAHD1 / Fold change vs veh, FAHD1 / RFU, BDP1 / Fold change vs veh, BDP1 / RFU, LRRCC1 / Fold change vs veh, LRRCC1 / RFU, ARID1A / Fold change vs veh, ARID1A / RFU, ZNF146 / Fold change vs veh, ZNF146 / RFU, ZNF330 / Fold change vs veh, ZNF330 / RFU, GPN3 / Fold change vs veh, GPN3 / RFU, C9orf123 / Fold change vs veh, C9orf123 / RFU, N4BP2L2 / Fold change vs veh, N4BP2L2 / RFU, ARFIP1 / Fold change vs veh, ARFIP1 / RFU, FAM179B / Fold change vs veh, FAM179B / RFU, BCL10 / Fold change vs veh, BCL10 / RFU, UHRF1BP1L / Fold change vs veh, UHRF1BP1L / RFU, BET1 / Fold change vs veh, BET1 / RFU, CNOT2 / Fold change vs veh, CNOT2 / RFU, ZNF268 / Fold change vs veh, ZNF268 / Fold change vs veh, ZNF507 / RFU, DGCR2 / Fold change vs veh, DGCR2 / RFU, WDSUB1 / Fold change vs veh, WDSUB1 / Fold change vs veh, HSP90B1 /// MIR3652 / RFU, ADSS / Fold change vs veh, ADSS / RFU, GK / Fold change vs veh, GK / RFU, ZNF148 / Fold change vs veh, ZNF148 / RFU, TAF9 / Fold change vs veh, TAF9 / RFU, SLC1A5 / Fold change vs veh, SLC1A5 / RFU, SLMO2 / Fold change vs veh, SLMO2 / RFU, ABCC4 / Fold change vs veh, ABCC4 / RFU, LOC101060439 /// RAP1B / Fold change vs veh, LOC101060439 /// RAP1B / RFU, RFX7 / Fold change vs veh, RFX7 / RFU, GTPBP10 / Fold change vs veh, GTPBP10 / RFU, CNEP1R1 / Fold change vs veh, CNEP1R1 / RFU, BIVM-ERCC5 /// ERCC5 / Fold change vs veh, BIVM-ERCC5 /// ERCC5 / RFU, ILF3 / Fold change vs veh, ILF3 / RFU 11762660_at / Fold change /veh 11762660_at / RFU VCAN (11757783_s_at) / Fold change /veh VCAN (11757783_s_at) / RFU DDX43 (11728927_at) / Fold change /veh DDX43 (11728927_at) / RFU KRT8 (11758188_x_at) / Fold change /veh KRT8 (11758188_x_at) / RFU NKD1 (11759106_at) / Fold change /veh NKD1 (11759106_at) / RFU SRD5A1 (11742802_a_at) / Fold change /veh SRD5A1 (11742802_a_at) / RFU TPSAB1 /// TPSB2 (11721975_s_at) / Fold change /veh TPSAB1 /// TPSB2 (11721975_s_at) / RFU GSTM3 (11746129_a_at) / Fold change /veh GSTM3 (11746129_a_at) / RFU IL23R (11737362_x_at) / Fold change /veh IL23R (11737362_x_at) / RFU TMEM51 (11727254_a_at) / Fold change /veh TMEM51 (11727254_a_at) / RFU PIWIL2 (11732686_x_at) / Fold change /veh PIWIL2 (11732686_x_at) / RFU ORM1 (11744905_x_at) / Fold change /veh ORM1 (11744905_x_at) / RFU CCDC152 (11743942_at) / Fold change /veh CCDC152 (11743942_at) / RFU ECM1 (11717891_a_at) / Fold change /veh ECM1 (11717891_a_at) / RFU IL23R (11748794_a_at) / Fold change /veh IL23R (11748794_a_at) / RFU TNFAIP8L3 (11732012_x_at) / Fold change /veh TNFAIP8L3 (11732012_x_at) / RFU MBOAT4 (11741988_at) / Fold change /veh MBOAT4 (11741988_at) / RFU 11764193_at / Fold change /veh 11764193_at / RFU TMEM53 (11763286_at) / Fold change /veh TMEM53 (11763286_at) / RFU MAGEB2 (11727129_at) / Fold change /veh MAGEB2 (11727129_at) / RFU TMEM200A (11744735_a_at) / Fold change /veh TMEM200A (11744735_a_at) / RFU CCDC152 (11751479_a_at) / Fold change /veh CCDC152 (11751479_a_at) / RFU FAM211A (11726209_a_at) / Fold change /veh FAM211A (11726209_a_at) / RFU RGS16 (11746705_a_at) / Fold change /veh RGS16 (11746705_a_at) / RFU VCAN (11755009_s_at) / Fold change /veh VCAN (11755009_s_at) / RFU RHOB (11743442_s_at) / Fold change /veh RHOB (11743442_s_at) / RFU RGS16 (11720943_a_at) / Fold change /veh RGS16 (11720943_a_at) / RFU RGS16 (11720944_at) / Fold change /veh RGS16 (11720944_at) / RFU, VPS4B / Fold change vs veh, VPS4B / RFU, CREB1 / Fold change vs veh, CREB1 / RFU, DNAJC13 / Fold change vs veh, DNAJC13 / RFU, GNAQ / Fold change vs veh, GNAQ / RFU, CDK5R1 / Fold change vs veh, CDK5R1 / RFU, ZRANB3 / Fold change vs veh, ZRANB3 / RFU, CUL4A / Fold change vs veh, CUL4A / RFU, CCNY / Fold change vs veh, CCNY / RFU, UFL1 / Fold change vs veh, UFL1 / RFU, COG3 / Fold change vs veh, COG3 / RFU, DIAPH2 / Fold change vs veh, DIAPH2 / RFU, SKA2 / Fold change vs veh, SKA2 / RFU, AFF3 / Fold change vs veh, AFF3 / RFU, LMF1 / Fold change vs veh, LMF1 / RFU, IPO11 / Fold change vs veh, IPO11 / RFU, DFFB / Fold change vs veh, DFFB / RFU, FOXP1 / Fold change vs veh, FOXP1 / RFU, CARD8 / Fold change vs veh, CARD8 / RFU, STRN3 / Fold change vs veh, STRN3 / RFU, ADK / Fold change vs veh, ADK / RFU, RASSF2 / Fold change vs veh, RASSF2 / RFU, WIPF1 / Fold change vs veh, WIPF1 / RFU, LARP1B / Fold change vs veh, LARP1B / RFU, RASA1 / Fold change vs veh, RASA1 / RFU, RB1 / Fold change vs veh, RB1 / RFU, PPFIA1 / Fold change vs veh, PPFIA1 / RFU, MAT2A / Fold change vs veh, MAT2A / RFU, CCT5 / Fold change vs veh, CCT5 / RFU, WDR92 / Fold change vs veh, WDR92 / RFU, CUX1 / Fold change vs veh, CUX1 / RFU, TTC7A / Fold change vs veh, TTC7A / RFU, TMEM135 / Fold change vs veh, TMEM135 / RFU, DEPTOR / Fold change vs veh, DEPTOR / RFU, CPM / Fold change vs veh, CPM / RFU, DNAJB6 / Fold change vs veh, DNAJB6 / RFU, CACNA2D3 / Fold change vs veh, CACNA2D3 / RFU, DTX4 / Fold change vs veh, DTX4 / RFU, TFCP2 / Fold change vs veh, TFCP2 / RFU, GMCL1 /// GMCL1P1 / Fold change vs veh, GMCL1 /// GMCL1P1 / RFU, AEBP2 / Fold change vs veh, AEBP2 / RFU, SNHG1 /// SNORD22 /// SNORD25 /// SNORD26 /// SNORD27 /// SNORD28 /// SNORD29 /// SNORD31 / Fold change vs veh, SNHG1 /// SNORD22 /// SNORD25 /// SNORD26 /// SNORD27 /// SNORD28 /// SNORD29 /// SNORD31 / Fold change (Aza/veh), C12orf56 (ProbeSet 11735607_a_at) / Fold change (ACY-1035/veh), C12orf56 (ProbeSet 11735607_a_at) / Fold change (Aza/veh), FGFR1OP (ProbeSet 11751329_s_at) / Fold change (ACY-1035/veh), FGFR1OP (ProbeSet 11751329_s_at) / Fold change (Aza/veh), VPS36 (ProbeSet 11739960_a_at) / Fold change (ACY-1035/veh), VPS36 (ProbeSet 11739960_a_at) / RFU SYPL1 (11715823_x_at) / Fold change /veh SYPL1 (11715823_x_at) / RFU IGFBP7 (11715501_s_at) / Fold change /veh IGFBP7 (11715501_s_at) / RFU REEP3 (11722064_at) / Fold change /veh REEP3 (11722064_at) / RFU IGLL1 (11728026_x_at) / Fold change /veh IGLL1 (11728026_x_at): dose or concentration left out as unconfirmed. Particulars: MV-4-11 cells, 48 hours.

Turning to `Nc1ncn([C@@H]2O[C@H](CO)[C@@H](O)[C@H]2O)c(=O)n1` [azacitidine], the “Fold change /veh SYPL1 (11715823_x_at)” value is on record as 0.82.
